Measurements: patent US6388090B2, “Imidazole derivatives” (Orion Corporation, priority 2000, dated 2002)

The molecules below were run on alpha2 Adrenoceptors (Alpha2AR) (assay: Antagonist activity on alpha2 adrenoceptors in rat vas deferens in vitro (electrically evoked contractions)). Details: isolated rat vas deferens, field stimulation; antagonist added at least five minutes before alpha2AR agonist.
Experimental: Antagonist activity on alpha2 Adrenoceptors (Alpha2AR) in rat vas deferens in vitro
Rats were killed by CO2-suffocation. Vas deferentia were dissected out and both prostatic halves were removed to tissue chambers containing Krebs-solution of the following composition (mM): NaCl 118, KCl 4.7, CaCl22.5, KH2PO41.2, MgSO40.6, NaHCO325, glucose 11.1, aerated by 5% carbogen, temperature 37° C., pH 7.4. Propranolol […] and desipramine […] were added to prevent the possible effects on […] receptors and to prevent re-uptake of released norepinephrine, respectively. Preparations were tied to the bottom hooks of the incubation chambers and then to isometric force-displacement transducers above. Electrical stimulation was started after the equilibrium period (5 minutes under a resting tension of 0.5 g) by introducing field stimulation with the following parameters: twin-pulses, voltage 70 V, frequency 0.2 Hz, delay 5 ms, duration 2 ms. […] Inhibition of the electrically evoked contractions was measured as the response to alpha2AR agonists. Antagonist was administered into the incubation medium at least five minutes before agonist. Means ± SEM of percentage inhibition were calculated in the absence and in the presence of antagonist and expressed as dose-response curves. In order to express the antagonist potency, the pA2-value was calculated.

Row | SMILES | vas deferens Alpha2 antagonistic activity, pA2
1 | Oc1ccc2c(c1)C(Cc1c[nH]cn1)CC2c1ccccc1 (stereo not shown) [Compound 4, 3-(1H-imidazol-4-ylmethyl)-1-phenylindan-5-ol] | pA2 = 6.9
2 | Fc1ccccc1C1CC(Cc2c[nH]cn2)c2ccccc21 (stereo not shown) [Compound 10, 4-[3-(2-Fluorophenyl)indan-1-ylmethyl]-1H-imidazole] | pA2 = 6.2
3 | c1ccc(C2Cc3ccccc3C2Cc2c[nH]cn2)cc1 (stereo not shown) [Compound 16, 4-[(2,3-Dihydro-2-phenyl-1H-inden-1-yl)methyl]-1H-imidazole] | pA2 = 6.5
4 | Fc1ccc(C2CC(Cc3c[nH]cn3)c3cc(F)ccc32)cc1 (stereo not shown) [Compound 15, 4-[6-Fluoro-3-(4-fluorophenyl)indan-1-ylmethyl]-1H-imidazole] | pA2 = 6.2
5 | COc1ccc2c(c1)C(Cc1c[nH]cn1)C(c1ccccc1)C2 (stereo not shown) [Compound 13, 4-[(2,3-Dihydro-6-methoxy-2-phenyl-1H-inden-1-yl)methyl]-1H-imidazole] | pA2 = 5.6
6 | COc1cc2c(cc1OC)C(c1ccccc1)CC2Cc1c[nH]cn1 (stereo not shown) [Compound 2, 4-(5,6-Dimethoxy-3-phenylindan-1-ylmethyl)-1H-imidazole] | pA2 = 6.0
7 | Oc1ccc2c(c1)C(Cc1c[nH]cn1)CC2c1ccc(F)cc1 (stereo not shown) [Compound 8, 1-(4-Fluorophenyl)-3-(1H-imidazol-4-ylmethyl)indan-5-ol] | pA2 = 6.7
8 | Oc1cc2c(cc1O)C(c1ccccc1)CC2Cc1c[nH]cn1 (stereo not shown) [Compound 3, 1-(1H-Imidazol-4-ylmethyl)-3-phenylindan-5,6-diol] | pA2 = 5.6
9 | c1ccc(C2CC(Cc3c[nH]cn3)c3ccccc32)cc1 (stereo not shown) [Compound 1, 4-(3-Phenylindan-1-ylmethyl)-1H-imidazole] | pA2 = 7.0
10 | c1ccc(C2OC(Cc3c[nH]cn3)c3ccccc32)cc1 (stereo not shown) [Compound 12, 4-(3-Phenyl-1,3-dihydroisobenzofuran-1-ylmethyl)-1H-imidazole] | pA2 = 6.3
11 | Oc1ccc(C2CC(Cc3c[nH]cn3)c3cc(O)ccc32)cc1 (stereo not shown) [Compound 6, 1-(4-Hydroxyphenyl)-3-(1H-imidazol-4-ylmethyl)indan-5-ol] | pA2 = 6.6
12 | Fc1cccc(C2CC(Cc3c[nH]cn3)c3ccccc32)c1 (stereo not shown) [Compound 9, 4-[3-(3-Fluorophenyl)indan-1-ylmethyl]-1H-imidazole] | pA2 = 6.2
13 | Oc1ccc2c(c1)C(Cc1c[nH]cn1)C(c1ccccc1)C2 (stereo not shown) [Compound 14, 3-(1H-Imidazol-4-ylmethyl)-2-phenylindan-5-ol] | pA2 = 5.5
14 | Fc1ccc(C2CC(Cc3c[nH]cn3)c3ccccc32)cc1 (stereo not shown) [Compound 7, 4-[3-(4-Fluorophenyl)indan-1-ylmethyl]-1H-imidazole] | pA2 = 7.6
15 | COc1ccc(C2CC(Cc3c[nH]cn3)c3cc(OC)ccc32)cc1 (stereo not shown) [Compound 5, 4-[6-Methoxy-3-(4-methoxyphenyl)indan-1-ylmethyl]-1H-imidazole] | pA2 = 6.3
16 | Fc1ccc(C2CC(Cc3c[nH]cn3)c3ccccc32)cc1F (stereo not shown) [Compound 11, 4-[3-(3,4-Difluorophenyl)indan-1-ylmethyl]-1H-imidazole] | pA2 = 6.2
